Results from patent US20110144125A1, “Anti-Arrhythmia Agents, Methods of Their Use, Methods of Their Identification and Kits Therefore” (THE UAB RESEARCH FOUNDATION, priority 2008, published 2011).

Test system: rat left atrial appendage
Test: ATXII-induced triggered activity and transition to automaticity in left atrial appendage
Conditions: ATXII-treated appendages, ˜25 μM 2-APB
Text: There are two types of afterdepolarizations; early afterdepolarizations (EADs) that occur early during repolarization and delayed afterdepolarizations (DADs) that occur in fully repolarized, resting myocytes (FIG. 4). Both EADs and DADs are defined as “triggered” activities as they require a preceding normal action potential to occur (FIG. 3B). One model to elicit EADs is to expose heart muscle or myocytes to Anemonia sulcata Toxin II (ATX II). This 47 amino acid peptide specifically enhances late sodium current and prolongs the action potential duration (FIG. 3D; middle panel). This leads to calcium loading of heart muscle followed by EADs during phase 2 or phase 3 of the action potential (FIGS. 3D & 5). These EADs, if of sufficient magnitude, produce ectopic mechanical events (FIG. 3B; ‡).
In embodiments of the assay an agent to induce arrhythmia will be introduced in the muscle. The arrhythmic agent may be chemical or physical. If the agent is chemical, it can be any chemical agent known by those skilled in the art to induce arrhythmia. The chemical agent will be introduced at a concentration sufficient to induce arrhythmia. If a certain type of arrhythmia is the subject of the assay (for example, triggered activity, tachycardia or any other type of arrhythmia), then the agent should be present at a concentration sufficient to produce the certain type of arrhythmia. One acceptable agent is anemone toxin II (“ATX II,”), the toxin of Anemone sulcata. ATX II is a sodium channel regulator.
It was tested whether the altered voltage-independent calcium homeostasis which 2-APB provokes is sufficient to initiate frank automaticity from triggered activity.

Compound: NCCOB(c1ccccc1)c1ccccc1 [2-APB, 2-aminoethoxydiphenyl borate]
- transition from triggered activity to STA: STA began to occur
